“And” between values parts separate entries of the source, which are not always exact repeats. Equal entries are not always repeated. “Also recorded” adds a separate entry of the source. Where two headings read alike, the source gives them in different places.
Legend:
[1] = tested on: intracellular K. pneumoniae; test: Intracellular survival of K. pneumoniae (RB120) in bladder epithelial cells (gentamicin protection assay, CFUs from plated cell lysates); type: cell-based, Klebsiella pneumoniae; conditions: for EC50: 24 hours of treatment, bladder epithelial cells, read-out: EC50 of dose-dependent killing / antimicrobial activity against intracellular K. pneumoniae
[2] = tested on: intracellular Salmonella Typhimurium; test: Intracellular survival of Salmonella Typhimurium in host cells; type: cell-based
[3] = tested on: Pseudomonas aeruginosa (PAO1); test: Intracellular survival of P. aeruginosa in bladder epithelial cells; type: cell-based; conditions: 10 μM, 24 hours
[4] = tested on: K. pneumoniae ST258 expressing mNeon (UCI_38DwbaP_mNeon); test: Confocal microscopy of fluorescent Klebsiella-containing vacuoles (LAMP1) in bladder epithelial cells; type: cell-based, Klebsiella pneumoniae; conditions: 10 μM, 24 hours (24 to 48 hours post infection)
[5] = tested on: extracellular K. pneumoniae; type: cell-based, Klebsiella pneumoniae
tumor growth = conditions: mouse, in vivo; cited from earlier work
interferon beta response = test: Interferon beta response in infected bladder epithelial cells; type: cell-based, human; parameters: dose or concentration left out as unconfirmed; conditions: 24 hours (24 to 48 hours post infection)
Procedure: FIG. 7. […] Infected cells were treated for 24 hours with […] (S)-crizotinib, AY9944 or DMSO control from 24 to 48 hours post infection.

[6] = tested on: intracellular K. pneumoniae; test: Intracellular survival of K. pneumoniae in human lung epithelial cell line A549; type: cell-based, Klebsiella pneumoniae; conditions: 10 μM, over 2 hours
[7] = tested on: uropathogenic Escherichia coli (UPEC, UTI89); test: Intracellular survival of UPEC in bladder epithelial cells; type: cell-based; conditions: 10 μM, 4 hours
[8] = tested on: intracellular carbapenem-tolerant K. pneumoniae; conditions: primary screen 5 μM, retest 2.5 to 20 μM
Procedure: Bladder epithelial cells were infected with lux-expressing K. pneumoniae and incubated with the carbapenem antibiotic meropenem (see FIG. 1A), after killing extracellular bacteria with a high dose of gentamicin shortly after the infection. Intracellular survival was assessed by determining the luminescence intensity of intracellular bacteria that had been liberated by host cell lysis and outgrown in LB medium for 7 hours. […] Mean and SD of Z-factors of n=32 plates from 4 batches (independent outgrowth events) shown. […] Partial hits and hits involving known antibiotics were excluded. Hits from the primary screen were retested in a secondary screen at different concentration.

cancer cells = conditions: cited from earlier work
SARS-COV-2 = SARS-COV-2 infection of veroE6 kidney epithelial cells (immunofluorescence microscopy); type: cell-based
[9] = tested on: post-lanosterol cholesterol biosynthesis pathway; test: LC-MS based lipidomics of sterol intermediates in host cells; type: cell-based, human; conditions: 10 μM
Procedure: FIGS. 17A-17C. LC-MS based lipidomics evaluation of effect of other available post-lanosterol cholesterol biosynthesis inhibitors on infection. (FIG. 17A) Post-lanosterol pathway. (FIG. 17B) Effect of 10 μM AY9944 or 10 μM (S)-crizotinib after 2 hours of treatment (FIG. 17C) or after 24 hours of treatment.

Gram-positive bacteria = conditions: cited from earlier work
[10] = 10 μM, after 24 hours of treatment
[11] = Klebsiella pneumoniae, Epithelial cell
[12] = 24 h treatment of infected bladder cells

## C[C@@H](O)[C@H]1C(=O)N2C(C(=O)O)=C(S[C@@H]3CN[C@H](C(=O)N(C)C)C3)[C@H](C)[C@H]12 [meropenem]
[1]; meropenem 10 μg/ml (150 fold of MIC), 20 hours
  impact on the viability of intracellular K. pneumoniae: no impact; also recorded: ineffective
[2]; meropenem 10 μg/ml, after 20 hours of treatment
  killed % of intracellular Salmonella Typhimurium population: 87%

## C[C@H](Oc1cc(-c2cnn(C3CCNCC3)c2)cnc1N)c1c(Cl)ccc(F)c1Cl [(S)-crizotinib]
[3]
  antibacterial activity in bladder epithelial cells infected with Pseudomonas aeruginosa: antibacterial activity
[4]
  reduction in the median fluorescence intensity of mNeon-expressing Klebsiella in LAMP1 containing compartments: 33%
  reduction of detected Klebsiella containing compartments: 63%
[5]
  antibacterial activity against K. pneumoniae grown in axenic medium: did not display antibacterial activity
Tumor growth
  tumor growth in mice: suppress tumor growth in mice
Interferon beta response
  interferon beta response in bladder epithelial cells infected with K. pneumoniae: do not induce an interferon beta response
[6]
  antiinfective activity against intracellular K. pneumoniae in A549 lung epithelial cells: rapid antiinfective activity
[7]
  antibacterial activity in bladder epithelial cells infected with UPEC: antibacterial activity
[1]; 10 μM, 15 minutes
  killing % of the intracellular population within 15 minutes: 82% and 80%
[1]; 10 μM, 2 hours
  % of the intracellular population killed after 2 hours of treatment: 99%
[1]; 10 μM, 2 hours, presence vs absence of gentamicin
  effect of removal of gentamicin from the culture medium on antibacterial activity: had no impact on the potent antibacterial activity
[1]; [10]
  killing % of the intracellular K. pneumoniae population: 99%
[1]; 4 mg/ml ciprofloxacin for 14 hours, then (S)-crizotinib for 6 hours in the presence of ciprofloxacin
  activity against intracellular ciprofloxacin-tolerant K. pneumoniae persisters: dose-dependent antibacterial activity
[1]; 2 hours, absence of gentamicin, supernatants
  increase of extracellular bacteria (exocytosis of Klebsiella-containing compartments): did not result in a significant increase of extracellular bacteria
[1]
  EC50: 1700 nM
Bladder epithelial cells
  host cell cytotoxicity against bladder epithelial cells: did not display cytotoxicity
[2]; HeLa epithelial cells, 10 μM, 20 hours (4 to 24 hours post infection)
  antibacterial activity in cells infected with Salmonella Typhimurium: antibacterial activity
[8]
  outcome in high-throughput screen: top hits
Cancer cells
  inhibits colony formation of cancer cells: low micromolar concentrations
SARS-COV-2; veroE6, MOI 0.1, 24 h treatment
  antiviral activity in epithelial cells infected with SARS-COV-2: induced antiviral activity in epithelial cells infected with SARS-COV-2 in a dose dependent manner

## Clc1ccccc1CNCC1CCC(CNCc2ccccc2Cl)CC1 (centres unmarked) [AY 9944]
[5]
  antibacterial activity against K. pneumoniae grown in axenic medium: no host cell toxicity or antimicrobial activity in axenic medium
Interferon beta response
  interferon beta response in bladder epithelial cells infected with K. pneumoniae: do not induce an interferon beta response
[1]; 10 uM, 60 minutes
  killed % of the intracellular population in 60 minutes: approx. 80%
[1]; [11]
  EC50: 940 nM
[9]; 2 hour treatment
  FF-MAS, fold increased: 4.2 fold
  dehydrodesmosterol, fold increased: 1.2 fold
  lanosterol, fold increased: 1.2 fold
[9]; 24 hour treatment
  FF-MAS, fold increased: 11.9 fold
  dehydrodesmosterol, fold increased: 2.9 fold
  lanosterol, fold increased: 3 fold
Bladder epithelial cells; [12]
  host cell cytotoxicity against bladder epithelial cells: no host cell toxicity
[8]
  outcome in high-throughput screen: hit
SARS-COV-2; Severe acute respiratory syndrome coronavirus 2, Vero C1008, read-out: EC50 of antiviral activity in SARS-COV-2 infections
  EC50: 1000 nM

## C[C@@H](Oc1cc(-c2cnn(C3CCNCC3)c2)cnc1N)c1c(Cl)ccc(F)c1Cl [crizotinib]
Gram-positive bacteria
  concentration for growth inhibition of Gram-positive bacteria: > 20 µM

## CC(C)Cn1cnc2c(N)nc3ccccc3c21 [imiquimod]
[1]; after 24 hours of treatment
  anti-infective / antimicrobial activity of TLR7 agonist: moderate anti-infective activity; also recorded: Modest antimicrobial activity

## C[C@@H](Oc1cc(-c2cnn(C3CCNCC3)c2)cnc1N)c1c(Cl)ccc(F)c1Cl [(R)-crizotinib]
[1]; [10]
  killing % of the intracellular K. pneumoniae population: 99%
[1]; [11]
  EC50: 1100 nM
Bladder epithelial cells
  host cell cytotoxicity against bladder epithelial cells: displayed host cell cytotoxicity in a dose-dependent manner
[8]
  outcome in high-throughput screen: top hits

## CNc1cc(-c2cccc(Cl)c2Cl)nc(N)n1 [TH287]
[1]; 10 μM
  intracellular antibacterial activity after 4 hours of treatment: did not display intracellular antibacterial activity
  intracellular antibacterial activity after 24 hours of treatment: modest antibacterial activity
Bladder epithelial cells; [12]
  host cell cytotoxicity against bladder epithelial cells: dose dependent toxicity

## Nc1nc(NC2CC2)cc(-c2cccc(Cl)c2Cl)n1 [TH588]
[1]; 10 μM
  intracellular antibacterial activity after 4 hours of treatment: did not display intracellular antibacterial activity; also recorded: did not induce intracellular antibacterial activity
  intracellular antibacterial activity after 24 hours of treatment: modest antibacterial activity
Bladder epithelial cells; [12]
  host cell cytotoxicity against bladder epithelial cells: dose dependent toxicity

Reference: patent US20240294504A1, “COMPOUNDS, COMPOSITIONS, AND METHODS FOR INDUCING ANTIMICROBIAL INTRACELLULAR ACTIVITY AND FOR PREVENTING AND TREATING MICROBIAL INFECTIONS” (The Broad Institute, Inc., priority 2021, published 2024)
